Laboratory results as given in patent publication US20070087985A1, “MRCK-related compositions and methods” (priority 2005, published 2007).

Legend:
Type in all cases: cell-based
[1] = tested on: starved wound edge NIH-3T3 cells; experiment: MTOC reorientation in wounded starved monolayers (fixed, stained cells); settings: for MTOC reorientation in starved cells without LPA: microinjected protein or expressed DNA, no other treatment; for effect on MTOC reorientation induced by LPA: pre-treatment with 0.5 μM CD or 50 μM BB
Experimental: (§1) NIH-3T3 cells were cultured in DMEM with 10% calf serum, serum starved for 2 days and wounded as previous described (9, 21).
(§2) Plasmid DNA was purified using Plasmid Midi Kit (Qiagen, Valencia, Calif.) and was microinjected into nuclei as described (38). Expression was detectable within 1-2 hr. Proteins were microinjected as described (9, 39). DIC mAb 74.1 (from K. Pfister, U. of Virginia), was microinjected at 10 mg/ml and Cdc42, Rac and Rho GTPases were microinjected at 1 mg/ml. For double microinjections, 100 μg/ml DNA (MRCK-WT or MRCK-CPC) was injected into the nucleus with 2 mg/ml fluorescein-ovalbumin. After 30 min, labelled cells were injected with DIC mAb, L61Cdc42 or human IgG as a control.
(§3) Phase contrast and fluorescence images of cells stained for pericentrin or γ-tubulin, β-catenin, DNA, expression tag, MTs. (Tyr tubulin) or injection marker were acquired as described (38, 39). MTOC reorientation was determined as previously described (39). For analysis of nucleus and MTOC position, images were pseudo-colored, aligned with the wound parallel to the X axis and then combined using Metamorph software. The cell perimeter was drawn over the cell-cell contacts (β-catenin, expression tags or injection markers) and the wound edge (Tyr-tubulin or injection markers) and the cell centroid was calculated using Metamorph software. Similarly, the nuclear perimeter was drawn and the centroid of the nucleus calculated. A vector representing the distances from the centroid of the nucleus and the MTOC (γ-tubulin or pericentrin staining and MT focus) to the cell centroid was drawn and resolved into X and Y coordinates (parallel and perpendicular to the leading edge, respectively). To allow comparison between cells, measurements were normalized to cell size. […] At least 30 cells from 3 independent experiments were analysed for each condition and error bars in plots are SEM.

[2] = tested on: starved wound edge NIH-3T3 cells; experiment: Determination of nucleus and MTOC position relative to the cell centroid; settings: for rearward nuclear movement in starved cells without LPA: microinjected protein or expressed DNA; for effect on LPA-induced rearward nuclear movement / effect on rearward nuclear movement induced by LPA / effect on the position of the MTOC: 2 μM LPA, 2 hr; for effect on rearward nuclear movement induced by LPA / effect on the position of the MTOC: pre-treatment with 0.5 μM CD or 50 μM BB
Experimental: as §1, §2, §3

[3] = tested on: pSer19 MLC; experiment: Phospho-Ser19 MLC quantification; settings: starved wound edge cells, injected, fixed 2.5 hr later
Experimental: Total cell extracts prepared in SDS sample buffer were analyzed by western blotting as described (38). For quantification of pSer19-MLC immunofluorescence, average cellular fluorescence intensity was determined with Metamorph software after subtracting background fluorescence (determined for an adjacent cell-free area). Data is from at least two independent experiments and error bars in plots are SEM.

[4] = tested on: wound edge NIH-3T3 cells; experiment: Actin distribution (phalloidin staining)
Experimental: Actin retrograde flow is involved in nuclear movement. A. Region of 3T3-GFPTub cell used for kymograph in B. B. Kymograph showing retrograde movement of MTs and nucleus before and after 2 μM LPA addition. […] The nucleus is the broad dark band at the bottom of the kymograph and begins moving rearward in concert with MTs. C, D. Wound edge starved NIH-3T3 cells were microinjected with R-actin and time lapse images of actin speckles were acquired before (C) or after (D) addition of 2 μM LPA. Kymographs of a region of the lamella are shown (separate cells are shown in C and D). Actin speckles (arrowheads) remain stationary in the absence of LPA (C) but move away from the leading edge upon LPA addition (D). Note that the nucleus remains stationary in the absence of LPA (C) but moves rearward at the same rate as actin speckles after LPA addition (D). E. Starved wounded monolayers of NIH-3T3 cells were either left untreated or treated with 2 μM LPA with or without BB or CD as indicated. After 2 hr, coverslips were fixed, stained and the extent of MTOC reorientation determined. The level of random “reorientation” is ˜33%. F. The average positions of the MTOC and nucleus from the cells treated as in E were determined and plotted. G. Actin distribution (phallodin staining) in wound edge NIH-3T3 cells treated as indicated. Bar, G: 10 μm.
Cdc42 and MRCK activate nuclear movement to reorient the MTOC. A. Starved wound edge NIH-3T3 cells were injected with L61Cdc42, N17Cdc42 or Pak-CRIB domain proteins and then treated with 2 μM LPA for 2 hr. Cells were then fixed, stained and the positions of the nucleus and MTOC were determined. […] After expression (2 hr) cells were treated with 2 μM LPA for 2 hr, fixed, stained and the extent of MTOC reorientation determined. […] After expression (3 hr), cells were fixed, stained and the extent of MTOC reorientation was determined. D, E. Average nucleus and MTOC positions of cells from B and C were determined and plotted. […] Cells were fixed and stained and the percentage of expressing cells remaining at the wound edge determined. […]

[5] = tested on: starved wound edge NIH-3T3 cells; experiment: Migration of expressing wound edge cells after serum stimulation; settings: DNA microinjection, serum for 12 h
Experimental: Cdc42 and MRCK activate nuclear movement to reorient the MTOC. A. Starved wound edge NIH-3T3 cells were injected with L61Cdc42, N17Cdc42 or Pak-CRIB domain proteins and then treated with 2 μM LPA for 2 hr. Cells were then fixed, stained and the positions of the nucleus and MTOC were determined. MTOC reorientation is indicated as YES (>60%); NO (<40%). B. Starved wound edge NIH-3T3 cells were injected with DNA encoding myc-hPAK1 (hPAK1(83-149)), HA-MRCK-TM or Flag-MRCK-CPC. After expression (2 hr) cells were treated with 2 μM LPA for 2 hr, fixed, stained and the extent of MTOC reorientation determined. C. Serum starved wound edge NIH-3T3 cells were injected with DNA encoding […] HA-L61Cdc42, HA-L61Cdc42 plus flag-MRCK-CPC or flag-MRCK-WT (MRCK-WT). After expression (3 hr), cells were fixed, stained and the extent of MTOC reorientation was determined. D, E. Average nucleus and MTOC positions of cells from B and C were determined and plotted. F. Representative images of cells microinjected with the indicated constructs and treated with LPA as indicated before fixing and staining. Arrows indicate cells with expressed protein (green), pericentrin and β-catenin (red) and DNA (blue). G. Actin (phalloidin staining) in a cell injected with MRCK-TM (arrow) and treated with LPA. […] Cells were fixed and stained and the percentage of expressing cells remaining at the wound edge determined. […]

[6] = microinjected protein, antibody or expressed DNA construct
[7] = 100 nM nocodazole with LPA for 2h
[8] = microinjected protein, antibody or expressed DNA construct, 2 μM LPA, 2 hr
[9] = co-expression with HA-L61Cdc42, 3 hr

## L61Cdc42: constitutively active L61Cdc42 protein (microinjected) or HA-L61Cdc42 DNA
[1]
  MTOC reorientation in starved cells without LPA: resulted in MTOC reorientation
[2]; no other treatment
  rearward nuclear movement in starved cells without LPA: induced rearward nuclear movement
[3]
  pSer19 MLC immunofluorescence compared to noninjected cells: substantially increased

## N17Cdc42: dominant-negative N17Cdc42 protein
[2]; [6]
  effect on LPA-induced rearward nuclear movement: blocked

## COC(=O)Nc1nc2ccc(C(=O)c3cccs3)cc2[nH]1 [nocodazole, reference compound]
[1]; [7]
  effect on LPA-induced MTOC reorientation: blocked MTOC reorientation
[2]; 100 nM nocodazole washed out, medium with LPA for another 2h
  MTOC position upon nocodazole wash out: the MTOC returned to the cell center
[2]; [7]
  effect on MTOC centration: interfering with MTOC centration
  effect on nuclear movement: not with nuclear movement

## Cc1ccc2c(c1)C(=O)C1(O)CCN(c3ccccc3)C1=N2 (stereo not drawn) [BB, blebbistatin, reference compound]
[1]; 2 μM LPA, 2 hr
  effect on MTOC reorientation induced by LPA: blocked
[2]
  effect on rearward nuclear movement induced by LPA: blocked
  effect on the position of the MTOC: without affecting
[4]; CD or BB with 2 μM LPA
  effect on LPA-induced changes in the actin cytoskeleton: blocked

## C=C1[C@@H](C)[C@H]2[C@H](Cc3ccccc3)NC(=O)[C@]23[C@H](OC(C)=O)/C=C/[C@@](C)(O)C(=O)[C@@H](C)C/C=C/[C@H]3[C@@H]1O [CD, cytochalasin D, reference compound]
[1]; lower concentrations of CD (below 0.5 μM)
  effect on MTOC reorientation: had no effect
[1]; 2 μM LPA, 2 hr
  effect on MTOC reorientation induced by LPA: blocked
[2]
  effect on rearward nuclear movement induced by LPA: blocked
  effect on the position of the MTOC: without affecting
[4]; CD or BB with 2 μM LPA
  effect on LPA-induced changes in the actin cytoskeleton: blocked

## wild type MRCK: wild type full length Rat MRCKa
[1]
  MTOC reorientation in starved cells without LPA: induced
[2]; expressed DNA, no other treatment
  position of the MTOC in starved cells without LPA: maintaining the MTOC at the cell centroid
[2]; no other treatment
  rearward nuclear movement in starved cells without LPA: induced
[3]
  pSer19 MLC immunofluorescence compared to noninjected cells: increased
[5]
  effect on cell migration (expressing cells remaining at the wound edge): no effect on cell migration

## MRCK-TM: dominant negative full length MRCKa with K106A, H1579A and H1582A mutations
[1]; [8]
  effect on LPA-induced MTOC reorientation: blocked MTOC reorientation
[2]; [6]
  effect on LPA-induced rearward nuclear movement: blocking the rearward movement of the nucleus
[5]
  effect on cell migration (expressing cells remaining at the wound edge): migration was inhibited
[4]; cell injected with DNA construct, treated with LPA
  effect on LPA-induced changes in the actin cytoskeleton: did not have a major effect

B1: hpak1(83-149): N-terminal autoregulatory domain of Pak1, which inhibits Pak1 activity (protein, UniProt Q13153 83-149, looked up, fragment)
chain: HTIHVGFDAVTGEFTGMPEQWARLLQTSNITKSEQKKNPQAVLDVLEFYNSKKTSNSQKYMSFTDKS
modifications: myc tag
[1]; [8]
  effect on LPA-induced MTOC reorientation: still reoriented their MTOC
[2]; [6]
  effect on LPA-induced rearward nuclear movement: moved their nuclei rearward

B2: Par6: full length mouse Par-6 in pFLAG CMV2 (protein, UniProt Q9Z101 1-346, looked up)
chain: MARPQRTPARSPDSIVEVKSKFDAEFRRFALPRTSVRGFQEFSRLLCVVHQIPGLDVLLGYTDAHGDLLPLTNDDSLHRALASGPPPLRLLVQKRAEGDSSGLAFASNSLQRRKKGLLLRPVAPLRTRPPLLISLPQDFRQVSSVIDVDLLPETHRRVRLHKHGSDRPLGFYIRDGMSVRVAPQGLERVPGIFISRLVRGGLAESTGLLAVSDEILEVNGIEVAGKTLDQVTDMMVANSHNLIVTVKPANQRNNVVRGASGRLTGPSSVGPGPTDPDSDDDSSDLVIENRHPPCSNGLSQGPLCWDLQPGCLLPGAGSSLPSLDSREQANSGWGNGMRGDVSGFSL
modifications: full-length Flag tag
notes: full length mouse Par-6 in pFLAG CMV2
[1]; [8]
  effect on LPA-induced MTOC reorientation: blocked
[2]; [6]
  effect on LPA-induced rearward nuclear movement: unaffected
[2]; microinjected protein, antibody or expressed DNA construct, LPA-treated (L61Cdc42 without LPA)
  position of the MTOC relative to the cell centroid: displacement of the MTOC from its position at the centroid

B3: MRCK-CPC: dominant negative truncated MRCKa, aa930-1492, lacks kinase domain and GTPase binding domain (protein, UniProt O54874 930-1492, looked up, fragment)
chain: QLIKDTEELRSEKGVEHRDSQHSFLAFLNTPTDALDQFERSPSCTPAGKGRRIADSAPLPVHTPTLRKKGCPASAGFPPKRKTHQFFVKSFTAPTKCHQCTSLMVGLIRQGCSCEVCGFSCHITCVNKAPTTCPVPPEQTKGPLGIDPQKGVGTAYEGHVRIPKPAGVKKGWQRALAVVCDFKLFLYDIAEGKASQPSSVISQVIDMRDEEFSVSSVLASDVIHASRKDIPCIFRVTASQLSAPSDKCSILMLADSETERSKWVGVLSELHKVLKKNKFRDRSVYVPKEAYDSTLPLIKTTQAAAIIDHERVALGNEEGLFVVHVTKDEIIRVGDNKKIHQIELIPSDQLVAVISGRNRHVRLFPMSALDGRETDFYKLAETKGCQTIAAGKVRHGALSCLCVAMKRQVLCYELFQSKTRHRKFKEIQVPCNVQWMAIFSEHLCVGFQSGFLRYPLNGEGSPCNMLHSNDHTLAFITHQPMDAICAVEISNKEYLLCFSSIGIYTDCQGRRSRQQELMWPANPSSCCYNAPYLSIYSENAVDIFDVNSMEWIQTLPLKKVRPL
modifications: Flag tag
[1]; [9]
  effect on MTOC reorientation induced by L61Cdc42: inhibited
[1]; [8]
  effect on LPA-induced MTOC reorientation: blocked MTOC reorientation
[2]; [9]
  effect on nuclear movement induced by L61Cdc42: inhibited
[2]; [6]
  effect on LPA-induced rearward nuclear movement: blocking the rearward movement of the nucleus
[3]
  pSer19 MLC immunofluorescence compared to noninjected cells: no effect
